According to patent US4937346A, “Phenyl-azacykloalkanes” (Carlsson; Per Arvid Emil, priority 1979, dated 1990):

What was measured:
[1] = test system: postsynaptic DA receptors; experiment: Emetic activity in dogs; assay type: in vivo; details: at least at 1 mg/kg i.m.
Description: (§1) It was in fact lacking any measurable temperature effects.

Rat rectal temperature = assay type: in vivo; details: 8 mg/kg s.c., 0-30 min
Description: as §1

DA autoreceptors = experiment: Turning behavior in rats with acute unistriatal KCl lesion; assay type: in vivo, rat; design: key to Catalepsy: + present; - absent; details: for Apomorphine-induced turning: apomorphine 1.0 mg/kg s.c. 1 h after
Description: 5. Turning behavior in rats with acute unistriatal lesion.
In animals with an acute unilateral KCl-lesion (1μ1 25% KCl lesioned side, 1μ1 20% NaCl control side, administered through previously implanted "guide cannulaes") of the striatum, compensatory counterbalancing adjustments in the intact contralateral striatum are brought about and therefore no appreciable asymmetry in body posture or torsion is observed. Disturbances in the balance produces, depending on the point of attack, ipsi- or alternatively contralateral turning. In this model postsynaptically active DA agonists (e.g. apomorphine, high dosage) elicit ipsilateral turning and rotatory behavior whereas DA antagonists (e.g. haloperidol) cause contralateral turning. Consequently it could be expected that agents acting exclusively on DA autoreceptors would produce contralateral turning in the lesioned animals.

Br.CCCN1CCCC(c2cccc(O)c2)C1 (racemic) [Compound 4, N-n-propyl-3-(3-hydroxyphenyl)piperidine hydrobromide]
emetic activity [1]: devoid of emetic activity in dogs
effect on rectal temperature (Rat rectal temperature): failed to lower the rat rectal temperature
Catalepsy (DA autoreceptors; 1 mg/kg s.c.): -
Turning contralateral (DA autoreceptors; 1 mg/kg s.c., 2 animals): 2
Turning ipsilateral (DA autoreceptors; 1 mg/kg s.c., 2 animals): 0
Catalepsy (DA autoreceptors; 2 mg/kg s.c.): -
Duration of turning (DA autoreceptors; 2 mg/kg s.c.): > 2 h
Turning contralateral (DA autoreceptors; 2 mg/kg s.c., 4 animals): 4
Turning ipsilateral (DA autoreceptors; 2 mg/kg s.c., 4 animals): 0
Apomorphine-induced turning (DA autoreceptors; 2 mg/kg s.c.): Ipsi 4/4
Catalepsy (DA autoreceptors; 4 mg/kg s.c.): -
Turning contralateral (DA autoreceptors; 4 mg/kg s.c., 2 animals): 2
Turning ipsilateral (DA autoreceptors; 4 mg/kg s.c., 2 animals): 0
Catalepsy (DA autoreceptors; 8 mg/kg s.c.): -
Duration of turning (DA autoreceptors; 8 mg/kg s.c.): > 4 h
Turning contralateral (DA autoreceptors; 8 mg/kg s.c., 4 animals): 4
Turning ipsilateral (DA autoreceptors; 8 mg/kg s.c., 4 animals): 0
Apomorphine-induced turning (DA autoreceptors; 8 mg/kg s.c.): Ipsi 4/4
Catalepsy (DA autoreceptors; 32 mg/kg s.c.): +
Duration of turning (DA autoreceptors; 32 mg/kg s.c.): > 4 h
Turning contralateral (DA autoreceptors; 32 mg/kg s.c., 8 animals): 8
Turning ipsilateral (DA autoreceptors; 32 mg/kg s.c., 8 animals): 0
Apomorphine-induced turning (DA autoreceptors; 32 mg/kg s.c.): Ipsi 8/8
effect on apomorphine ipsilateral turning and rotatory response (DA autoreceptors; apomorphine 1.0 mg/kg s.c., pretreatment with compound 4): not affected by pretreatment with compound 4
turning direction (DA autoreceptors; s.c., each dose tested): made the animals turn to the side contralateral to the lesion
overall appearance (DA autoreceptors; s.c., lesioned rats): indicative of a sedative action
